≈ marks a conversion by molar mass, not a printed value. Values belong to the molecule of their own block, whether it stands above or below them.
Key:
Enterobacter cloacae [1] = assay: Antibacterial activity against Enterobacter cloacae SR36276 producing class C beta lactamase, AmpC assessed as reduction in microbial growth incubated for 16 to 20 hrs in presence of avibactam by broth microdilution method; format: functional; settings: time 16-20 hrs
Escherichia coli [2] = assay: Antibacterial activity against Escherichia coli BL21(DE3) transfected with pET9a vector harboring class A beta lactamase, CTX-M-15 incubated for 16 to 20 hrs by broth microdilution method; format: functional; settings: time 16-20 hrs
Escherichia coli [3] = assay: Antibacterial activity against Escherichia coli BL21(DE3) transfected with pET9a vector harboring class D beta lactamase, OXA-48 incubated for 16 to 20 hrs by broth microdilution method; format: functional; settings: time 16-20 hrs
Escherichia coli [4] = assay: Antibacterial activity against Escherichia coli BL21(DE3) transfected with pET9a empty vector incubated for 16 to 20 hrs by broth microdilution method; format: functional; settings: time 16-20 hrs
Enterobacterales [5] = assay: Antimicrobial activity against Enterobacterales producing KPC assessed as reduction in microbial growth measured after 16 to 20 hrs in presence of avibactam by broth microdilution method; format: functional; settings: time 16-20 hrs
Enterobacter cloacae [6] = assay: Antibacterial activity against Enterobacter cloacae SR36276 producing class C beta-lactamase, AmpC assessed as reduction in microbial growth incubated for 16 to 20 hrs by broth microdilution method; format: functional; settings: time 16-20 hrs
Klebsiella pneumoniae [7] = assay: Antibacterial activity against Klebsiella pneumoniae PLE producing class D beta-lactamase, OXA-48 assessed as reduction in microbial growth incubated for 16 to 20 hrs by broth microdilution method; format: functional; settings: time 16-20 hrs
Enterobacter cloacae [8] = assay: Antibacterial activity against Enterobacter cloacae IR32 producing class B beta-lactamase, NDM1 assessed as reduction in microbial growth incubated for 16 to 20 hrs by broth microdilution method; format: functional; settings: time 16-20 hrs
Escherichia coli [9] = assay: Antibacterial activity against Escherichia coli BL21(DE3) transfected with pET9a vector harboring class B beta lactamase, NDM-1 incubated for 16 to 20 hrs by broth microdilution method; format: functional; settings: time 16-20 hrs
Enterobacterales [10] = assay: Antimicrobial activity against Enterobacterales producing VIM assessed as reduction in microbial growth measured after 16 to 20 hrs in presence of avibactam by broth microdilution method; format: functional; settings: time 16-20 hrs
Enterobacter cloacae [11] = assay: Antibacterial activity against Enterobacter cloacae IR32 producing class B beta-lactamase, NDM-1 assessed as reduction in microbial growth incubated for 16 to 20 hrs in presence of avibactam by broth microdilution method; format: functional; settings: time 16-20 hrs
Escherichia coli [12] = assay: Antibacterial activity against Escherichia coli NIHJ JC-2 strain assessed as reduction in microbial growth incubated for 16 to 20 hrs in presence of avibactam by broth microdilution method; format: functional; settings: time 16-20 hrs
Klebsiella pneumoniae [13] = assay: Antibacterial activity against Klebsiella pneumoniae ATCC13883 assessed as reduction in microbial growth incubated for 16 to 20 hrs by broth microdilution method; format: functional; settings: time 16-20 hrs
Escherichia coli [14] = assay: Antibacterial activity against Escherichia coli SR34100 producing class A beta lactamase, CTX-M-15 assessed as reduction in microbial growth incubated for 16 to 20 hrs in presence of avibactam by broth microdilution method
Enterobacterales [15] = assay: Antimicrobial activity against Enterobacterales producing OXA-48 assessed as reduction in microbial growth measured after 16 to 20 hrs in presence of avibactam by broth microdilution method; format: functional; settings: time 16-20 hrs
Escherichia coli [16] = assay: Antibacterial activity against Escherichia coli NIHJ JC-2 assessed as reduction in microbial growth incubated for 16 to 20 hrs by broth microdilution method; format: functional; settings: time 16-20 hrs
Klebsiella pneumoniae [17] = assay: Antibacterial activity against Klebsiella pneumonia ATCC 13883 infected in cyclophosphamide-induced neutropenic Jcl:ICR mouse model assessed as log10 reduction in CFU at 3 mg/kg, sc administered at 2, 5 and 8 hrs after infection and measured at 10 hrs after infection; format: functional
Enterobacterales [18] = assay: Antimicrobial activity against Enterobacterales producing NDM assessed as reduction in microbial growth measured after 16 to 20 hrs in presence of avibactam by broth microdilution method; format: functional; settings: time 16-20 hrs
Klebsiella pneumoniae [19] = assay: Antibacterial activity against Klebsiella pneumonia ATCC 13883 infected in cyclophosphamide-induced neutropenic Jcl:ICR mouse model assessed as log10 reduction in CFU at 10 mg/kg, sc administered at 2, 5 and 8 hrs after infection and measured at 10 hrs after infection; format: functional
Escherichia coli [20] = assay: Antibacterial activity against Escherichia coli BL21(DE3) transfected with pET9a vector harboring class C beta lactamase, AmpC incubated for 16 to 20 hrs by broth microdilution method; format: functional; settings: time 16-20 hrs
Enterobacter cloacae [21] = assay: Antibacterial activity against Enterobacter cloacae 1,261,347 producing class A beta lactamase, PER-2 assessed as reduction in microbial growth incubated for 16 to 20 hrs in presence of avibactam by broth microdilution method; format: functional; settings: time 16-20 hrs
Klebsiella pneumoniae [22] = assay: Antibacterial activity against Klebsiella pneumoniae PLE producing class D beta lactamase, OXA-48 assessed as reduction in microbial growth incubated for 16 to 20 hrs in presence of avibactam by broth microdilution method; format: functional; settings: time 16-20 hrs
Escherichia coli [23] = assay: Antibacterial activity against Escherichia coli SR34100 producing class A beta-lactamase, CTX-M-15 assessed as reduction in microbial growth incubated for 16 to 20 hrs by broth microdilution method; format: functional; settings: time 16-20 hrs
Klebsiella pneumoniae [24] = assay: Antibacterial activity against Klebsiella pneumoniae JMI:211 producing class A beta lactamase, KPC-2 assessed as reduction in microbial, growth incubated for 16 to 20 hrs in presence of avibactam by broth microdilution method; format: functional; settings: time 16-20 hrs
Klebsiella pneumoniae [25] = assay: Antibacterial activity against Klebsiella pneumoniae JMI:211 producing class A beta-lactamase, KPC-2 assessed as reduction in microbial growth incubated for 16 to 20 hrs by broth microdilution method; format: functional; settings: time 16-20 hrs
Enterobacter cloacae [26] = assay: Antibacterial activity against Enterobacter cloacae 1,261,347 producing class A beta lactamase, PER-2 assessed as reduction in microbial growth incubated for 16 to 20 hrs by broth microdilution method; format: functional; settings: time 16-20 hrs
Enterobacterales [27] = assay: Antimicrobial activity against Enterobacterales producing OXA-48 assessed as reduction in microbial growth measured after 16 to 20 hrs by broth microdilution method; format: functional; settings: time 16-20 hrs
Enterobacterales [28] = assay: Antimicrobial activity against Enterobacterales producing NDM assessed as reduction in microbial growth measured after 16 to 20 hrs by broth microdilution method; format: functional; settings: time 16-20 hrs
Enterobacterales [29] = assay: Antimicrobial activity against Enterobacterales producing KPC assessed as reduction in microbial growth measured after 16 to 20 hrs by broth microdilution method; format: functional; settings: time 16-20 hrs
Enterobacterales [30] = assay: Antimicrobial activity against Enterobacterales producing VIM assessed as reduction in microbial growth measured after 16 to 20 hrs by broth microdilution method; format: functional; settings: time 16-20 hrs
[31] = Inhibition of CMY-2 in Escherichia coil BL21 assessed as inhibition of nitrocefin hydrolysis measured every 3 mins for 15 mins by UV spectrophotometer analysis; parameters: species or system Escherichia coli BL21

SMILES: CC(C)(O/N=C(\C(=O)N[C@@H]1C(=O)N2C(C(=O)[O-])=C(C[n+]3ccccc3)CS[C@H]12)c1csc(N)n1)C(=O)O [CEFTAZIDIME]
MIC (Enterobacter cloacae [1]): 1 µg/mL | MIC (Escherichia coli [2]): 0.25 µg/mL (≈ 0.457 µM) | MIC (Escherichia coli [3]): 0.063 µg/mL (≈ 0.115 µM) | MIC (Escherichia coli [4]): 0.063 µg/mL (≈ 0.115 µM) | MIC50 (Enterobacterales [5]): 4 µg/mL | MIC90 (Enterobacterales [5]): > 64 µg/mL | MIC (Enterobacter cloacae [6]): > 32 µg/mL | MIC (Klebsiella pneumoniae [7]): 1 µg/mL | MIC (Enterobacter cloacae [8]): > 32 µg/mL | MIC (Escherichia coli [9]): > 16 µg/mL | MIC50 (Enterobacterales [10]): > 64 µg/mL | MIC90 (Enterobacterales [10]): > 64 µg/mL | MIC (Enterobacter cloacae [11]): > 32 µg/mL | MIC (Escherichia coli [12]): 0.25 µg/mL | MIC (Klebsiella pneumoniae [13]): 0.25 µg/mL | MIC (Escherichia coli [14]): 1 µg/mL | MIC50 (Enterobacterales [15]): 0.125 µg/mL | MIC90 (Enterobacterales [15]): 4 µg/mL | MIC (Escherichia coli [16]): 0.25 µg/mL | Activity (Klebsiella pneumoniae [17]): 2.67 log10CFU | MIC50 (Enterobacterales [18]): > 64 µg/mL | MIC90 (Enterobacterales [18]): > 64 µg/mL | Activity (Klebsiella pneumoniae [19]): 3.05 log10CFU | MIC (Escherichia coli [20]): 0.25 µg/mL (≈ 0.457 µM) | MIC (Enterobacter cloacae [21]): > 32 µg/mL | MIC (Klebsiella pneumoniae [22]): 0.25 µg/mL | MIC (Escherichia coli [23]): > 32 µg/mL | MIC (Klebsiella pneumoniae [24]): 1 µg/mL

MIC (Enterobacter cloacae [6]): 8 µg/mL | MIC (Klebsiella pneumoniae [7]): 16 µg/mL | MIC (Enterobacter cloacae [8]): 2 µg/mL | MIC (Escherichia coli [16]): 1 µg/mL | MIC (Klebsiella pneumoniae [25]): 4 µg/mL | MIC (Escherichia coli [23]): 4 µg/mL
SMILES: Nc1nc(/C(=N/OCC(=O)O)C(=O)N[C@@H]2C(=O)N3[C@@H]2SC[C@@H]2CC(=O)O[C@@]23C(=O)O)c(Cl)s1

MIC (Enterobacter cloacae [6]): 16 µg/mL | MIC (Klebsiella pneumoniae [7]): 0.5 µg/mL | MIC (Enterobacter cloacae [8]): 0.25 µg/mL | MIC (Escherichia coli [16]): 0.125 µg/mL | MIC (Klebsiella pneumoniae [25]): 0.25 µg/mL | MIC (Escherichia coli [23]): 0.5 µg/mL
SMILES: C[C@H](O/N=C(\C(=O)N[C@@H]1C(=O)N2[C@@H]1SC[C@@H]1CC(=O)O[C@@]12C(=O)O)c1csc(N)n1)C(=O)O (stereo in doubt)

MIC (Enterobacter cloacae [6]): 16 µg/mL | MIC (Klebsiella pneumoniae [7]): 1 µg/mL | MIC (Enterobacter cloacae [8]): 0.25 µg/mL | MIC (Escherichia coli [16]): 0.125 µg/mL | MIC (Klebsiella pneumoniae [25]): 0.5 µg/mL | MIC (Escherichia coli [23]): 0.5 µg/mL
SMILES: C[C@@H](O/N=C(\C(=O)N[C@@H]1C(=O)N2[C@@H]1SC[C@@H]1CC(=O)O[C@@]12C(=O)O)c1csc(N)n1)C(=O)O (stereo in doubt)

MIC (Enterobacter cloacae [6]): > 32 µg/mL | MIC (Klebsiella pneumoniae [7]): 0.5 µg/mL | MIC (Enterobacter cloacae [8]): 2 µg/mL | MIC (Escherichia coli [16]): 0.25 µg/mL | MIC (Klebsiella pneumoniae [25]): 0.5 µg/mL | MIC (Escherichia coli [23]): 1 µg/mL
SMILES: Nc1nc(/C(=N/OCC(=O)O)C(=O)N[C@@H]2C(=O)N3[C@@H]2[S@+]([O-])C[C@@H]2CC(=O)O[C@@]23C(=O)O)cs1 (stereo in doubt)

MIC (Enterobacter cloacae [6]): 0.25 µg/mL | MIC (Klebsiella pneumoniae [7]): 0.5 µg/mL | MIC (Enterobacter cloacae [8]): 0.25 µg/mL | MIC (Escherichia coli [16]): 0.25 µg/mL | MIC (Klebsiella pneumoniae [25]): 0.5 µg/mL | MIC (Escherichia coli [23]): 0.5 µg/mL
SMILES: Nc1nc(/C(=N/OC2(C(=O)O)CC2)C(=O)N[C@@H]2C(=O)N3[C@@H]2[S@@+]([O-])C[C@@H]2CC(=O)O[C@@]23C(=O)O)cs1 (stereo in doubt)

SMILES: Nc1nc(/C(=N/OCC(=O)O)C(=O)N[C@@H]2C(=O)N3[C@@H]2[S@@+]([O-])C[C@@H]2CC(=O)O[C@@]23C(=O)O)cs1 (stereo in doubt)
MIC (Enterobacter cloacae [26]): 0.25 µg/mL | MIC (Enterobacter cloacae [6]): 0.063 µg/mL | MIC (Klebsiella pneumoniae [7]): 0.125 µg/mL | MIC50 (Enterobacterales [27]): 0.125 µg/mL | MIC90 (Enterobacterales [27]): 0.25 µg/mL | MIC (Enterobacter cloacae [8]): 0.063 µg/mL | MIC50 (Enterobacterales [28]): 0.25 µg/mL | MIC90 (Enterobacterales [28]): 1 µg/mL | MIC50 (Enterobacterales [29]): 0.25 µg/mL | MIC90 (Enterobacterales [29]): 0.5 µg/mL | MIC50 (Enterobacterales [30]): 0.25 µg/mL | MIC90 (Enterobacterales [30]): 1 µg/mL | MIC (Klebsiella pneumoniae [13]): 0.125 µg/mL | MIC (Escherichia coli [16]): 0.063 µg/mL | Activity (Klebsiella pneumoniae [17]): 2.11 log10CFU | MIC (Klebsiella pneumoniae [25]): 0.063 µg/mL | Activity (Klebsiella pneumoniae [19]): 2.46 log10CFU | Ki [31]: > 60000 nM | MIC (Escherichia coli [23]): 0.125 µg/mL

MIC (Enterobacter cloacae [6]): 8 µg/mL | MIC (Klebsiella pneumoniae [7]): 1 µg/mL | MIC (Enterobacter cloacae [8]): 0.25 µg/mL | MIC (Escherichia coli [16]): 0.125 µg/mL | MIC (Klebsiella pneumoniae [25]): 0.5 µg/mL | MIC (Escherichia coli [23]): 0.25 µg/mL
SMILES: Nc1nc(/C(=N/OC2(C(=O)O)CC2)C(=O)N[C@@H]2C(=O)N3[C@@H]2SC[C@@H]2CC(=O)O[C@@]23C(=O)O)cs1 (stereo in doubt)

MIC (Enterobacter cloacae [6]): 8 µg/mL | MIC (Klebsiella pneumoniae [7]): 1 µg/mL | MIC (Enterobacter cloacae [8]): 0.125 µg/mL | MIC (Klebsiella pneumoniae [13]): 0.125 µg/mL | MIC (Escherichia coli [16]): 0.063 µg/mL | MIC (Klebsiella pneumoniae [25]): 0.125 µg/mL | Ki [31]: 400 nM | MIC (Escherichia coli [23]): 0.25 µg/mL
SMILES: Nc1nc(/C(=N/OCC(=O)O)C(=O)N[C@@H]2C(=O)N3[C@@H]2SC[C@@H]2CC(=O)O[C@@]23C(=O)O)cs1 (stereo in doubt)

From ChEMBL document CHEMBL4808247 (Bioorg Med Chem, 2021)
